Data on six compounds can be found in article PMC2912288 (International journal of pharmaceutics, 2010).

Data set [1] has as its target T1, human apical sodium-dependent bile acid transporter (ASBT) (Homo sapiens, UniProt Q12908).
T1 sequence (Q12908 1-348): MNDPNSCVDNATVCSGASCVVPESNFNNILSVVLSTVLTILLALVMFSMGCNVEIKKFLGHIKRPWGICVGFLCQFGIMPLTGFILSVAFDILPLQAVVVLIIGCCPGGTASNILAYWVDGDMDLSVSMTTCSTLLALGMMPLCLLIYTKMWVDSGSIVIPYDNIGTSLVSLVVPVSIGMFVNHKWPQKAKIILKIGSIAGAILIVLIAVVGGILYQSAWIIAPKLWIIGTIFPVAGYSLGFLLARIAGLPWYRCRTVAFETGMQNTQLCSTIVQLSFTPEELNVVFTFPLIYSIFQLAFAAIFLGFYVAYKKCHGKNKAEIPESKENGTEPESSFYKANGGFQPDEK
In words: Uptake of prodrug into ASBT-MDCK monolayers.

For data set [2] the following is noted: ref Porter and Kaplan, 2009; cited from earlier work.
The conditions of data set [3]: of the drug moiety; source not stated; cited from earlier work.
Data set [4] has as its target T1, human apical sodium-dependent bile acid transporter (ASBT). In words: Inhibition of taurocholate uptake by prodrugs in ASBT-MDCK monolayers. In kind it is cell-based. Conditions: taurocholate uptake into ASBT-MDCK monolayers, 10 min.
The target in data set [5] is Pept1. The following applies: CHO-PepT1; ref Han et al., 1998; cited from earlier work.
For data set [6] the following is noted: ref Burnette and de, 1994; cited from earlier work.
Data set [7] concerns the target Pept1. Conditions: Xenopus laevis oocytes; ref Balimane et al., 1998; cited from earlier work.
Where [8] appears, read: prodrug uptake into ASBT-MDCK, 1–500 μM, 10 min, 37°C, mean (±SEM) of three measurements.

Entries after “also recorded” stand apart in the source; their conditions may differ. Read-outs that look alike come from different tables or passages of the source.

On to CDCA-lysine-niacin, for which the “ASBT's capacity to transport, relative to that of taurocholate” value in data set [1] (from normJmax) is “about 9%”. For the same compound, the Kt in data set [1] (setting [8]) was 8.22 (±3.63) μM.
With `C[C@H](CCC(=O)NCCS(=O)(=O)O)[C@H]1CC[C@H]2[C@@H]3[C@H](O)C[C@@H]4C[C@H](O)CC[C@]4(C)[C@H]3C[C@H](O)[C@]12C` [taurocholate, Taurocholic acid], the Kt in data set [1] (taurocholate, obtained from a pooled data analysis approach) was 5.03 µM.
In general, half-life refers to the time in which the quantity being followed falls by half. By Log P is commonly meant the decadic logarithm of the partition coefficient of the neutral form, usually between octanol and water. Turning to `O=C(O)c1cccnc1` [niacin, nicotinic acid], the half-life in data set [2] is 20 to 45 min. For the same compound, the “Log P” value in data set [3] is 0.25. In addition, the “ASBT inhibition (result in words)” value in data set [4] is reported as “Neither ketoprofen nor niacin was ASBT inhibitor; also recorded: not reduced”.
On to CDCA-lysine-ketoprofen, for which the “transport capacity relative to the capacity for taurocholate” value in data set [1] (from normJmax) turned out to be 1.87 fold. For the same compound, the Kt in data set [1] (setting [8]) was 50.8 (±23.2) μM.
On to `CC(C(=O)O)c1cccc(C(=O)c2ccccc2)c1` (stereo not drawn) [ketoprofen, Ketoprofen], for which the “ASBT inhibition (result in words)” value in data set [4] is “Neither ketoprofen nor niacin was ASBT inhibitor; also recorded: not reduced”.
What is called Ki is the dissociation constant of the complex between target and ligand, obtained from inhibition or displacement. Regarding `CC(C)[C@H](N)C(=O)OCCOCn1cnc2c(=O)[nH]c(N)nc21` [valacyclovir], the Ki on Pept1 [5] is 1.1 mM; on Pept1 [7], 4.08 mM. For the same compound, the “increase of acyclovir bioavailability” value in data set [6] is reported as 3 fold.
